What was measured:
TrkA = conditions: 10 μM glycopeptide 1 hr, NGF 4 ng/ml 5 minutes, ratio phospho-TrkA to total TrkA
Description: PC12 cells were seeded on laminin-coated coverslips at a density of 300 cells/mm^2 and one coverslip was used for each treatment (˜40,000 cells in total). Cells were starved in differentiation medium for 12-18 hr before use. For glycopeptide treatment, cells were incubated with fresh differentiation medium containing 10 μM glycopeptide for 1 hr at 37° C. To induce TrkA phosphorylation, cells were treated with NGF at a final concentration of 4 ng/ml for 5 minutes at 37° C. Cells were washed with ice cold PBS and lysed using RIPA lysis buffer containing protease and phosphatase inhibitors. The protein samples were separated on 4-12% SDS-PAGE gel and transferred to nitrocellulose membrane. Membranes were blocked for 1 h at room temperature and probed with anti-TrkA Ab (1:1500) and anti-pTrkA Ab (1:1500) overnight at 4° C., followed by 2 hr incubation with horseradish peroxidase-conjugated secondary antibodies. Enhanced chemiluminescence system was used for detection. The bands were quantified using the ImageJ program and the ratio of phosphor-TrkA to total TrkA was calculated and expressed as arbitrary units (a.u.).

PC12 cells = conditions: for effect on NGF-mediated neurite outgrowth: NGF 4 ng/ml, glycopeptide 10 μM, 72 hr, compared to NGF-only control
Description: Rat pheochromocytoma (PC12) cells were maintained in T75 tissue culture flask in complete RPMI 1640 growth medium containing 10% heat-inactivated horse serum (HI-HS), 5% fetal bovine serum (FBS) and 1% penicillin/streptomycin. Stock cultures from liquid nitrogen were grown at 37° C. with 5% CO2 in a humidified chamber for 72 hr before experiments.
13 mm glass coverslips were submerged in 65% nitric acid for at least three days. The coverslips were washed with distilled water, 70% ethanol and 100% ethanol 3× each for 30 minutes with gentle rocking. The coverslips were dried in the cell culture hood overnight with UV sterilization. For coating, 60 μl of laminin solution (25 μg/ml in sterile PBS) was added to each coverslip, followed by 2 hr incubation at 37° C. The coverslips were rinsed 3× with PBS and dried in the hood before use.
PC12 cells were seeded on laminin-coated coverslips at a density of 100 cells/mm^2 in RPMI 1640 differentiation medium containing 1% HI-HS. Cells were allowed to attach to the surface for 1 hr at 37° C. The coverslips were transferred to 24-well plates and the cells were incubated with fresh differentiation medium for 1 hr. Glycopeptides were incubated with NGF in differentiation medium for 1 hr at room temperature before adding to the cells together. At the end of culture period, the cells were fixed with 4% formaldehyde solution for 15 minutes at room temperature and rinsed 2× with PBS. All experiments were repeated three times and done in duplicate each time. For each treatment, 400-500 randomly selected single cells were counted. The percentage of neurite-bearing cells was determined by counting the number of cells with neurite length at least one cell body long.

[1] = target: nerve growth factor (NGF) (Homo sapiens, UniProt P01138); test: ELISA of NGF binding to immobilized biotinylated glycopeptides
Description: The new plate was rinsed three times with PBS containing 0.05% Tween 20 and one time with PBS before the experiment. 100 μL of biotinylated glycopeptide solutions (0.5 μM) were added to required wells in the Pierce Streptavidin Coated High Binding Capacity plates (#15501), and incubated overnight at room temperature. After immobilization of glycopeptides, the plates were rinsed three times with PBS containing 0.05% Tween 20 and one time with PBS. The surface was then blocked with 125 μL of 3% BSA in PBS for 1 hr, followed by rinsing three times with PBS containing 0.05% Tween 20 and one time with PBS. 100 μL of varying concentrations (0 nM, 10 nM, 20 nM, 30 nM, 40 nM, 50 nM and 60 nM) of NGF in PBS containing 1% BSA was added to the wells and incubated for 2 hrs at 37° C. […]
The wells were then incubated with anti-NGF labeled with HRP in PBS containing 1% BSA. Absorbance signal was then developed with 100 μL of TMB Substrate from Thermo Scientific Pierce (#0034021) for 20 to 30 min before quenching with 100 μL of 2M H2SO4. Absorbance at 450 nm was then measured.
To evaluate the ability of the glycopeptides to interact with protein receptors, the binding affinity of each agent with nerve growth factor (NGF), which is known to bind CS-E sulfation motif selectively,^[9] was examined by ELISA. […] The amount of glycopeptide-bound NGF was measured by HRP-conjugated polyclonal NGF antibody.

NGF = NGF (Homo sapiens, UniProt P01138); conditions: for ka2 / kd1 / kd2 / ka1: two-state kinetic model, 25° C., NGF 11-185 nM; for ka1: standard errors in parentheses
Description: Affinity measurements were performed using a Biacore T100 system (GE Heathcare). The CM5 sensor chip was used for all measurements. At first, the instrument was primed with HBS-EP+ (GE Heathcare) buffer. Then, 700RU of streptavidin was immobilized on all flow cells. A 1:1 mixture of 0.4 M EDC and 0.1 M NHS was used to activate the flow cells, and 0.008 mg/mL streptavidin solution reconstituted in Acetate 5.0 buffer (GE Healthcare) was injected. Blocking of the remaining activated groups was done with a 1 M solution of ethanolamine (pH 8.5). Flow cell 1 (or 3) was used as a reference to subtract nonspecific binding, drift, and the bulk refractive index, while flow cell 2 (or 4) was further immobilized with glycol-peptide samples of varying structures. Biotinylated glycopeptides (20 nM) were dissolved in HBS-EP+ buffer and were injected to flow cell 2 (or 4) at 30 μL/min until the baseline response increased by 104 or 127 RU. The instrument was then primed using running buffer (HBS-EP+). NGF was dissolved in HBS-EP+ buffer to produce a 185 nM stock solution, which was serially diluted to produce a concentration series down to 11 nM. […] Flow cells were regenerated by 2.5 M MgCl2 at 30 μL/min for 30 seconds after injection of each protein solutions.
Surface plasmon resonance (SPR) technology was further employed to facilitate quantitative, real-time kinetic analysis of glycopeptide-NGF interaction. Streptavidin was coated on a carboxydextran CM5 sensor chip, using EDC/NHS coupling chemistry, at a relatively low density (≈700 RU) to prevent nonspecific interactions with NGF. Biotinylated glycopeptides were then immobilized on streptavidin-coated surface at normalized levels by molecular weights,^[12] […] Kinetics were monitored at 25° C. by injecting various concentrations of NGF (11-185 nM) over the surface for 240 s at 50 μL·min^−1 and recording the dissociation for 800 s before the surface was regenerated with 2.5 M solution of MgCl2. […] Further kinetic analysis was conducted using a two-state binding model for comprehensive understanding of this binding event.

NGF, sequence (P01138 122-241, species assumed): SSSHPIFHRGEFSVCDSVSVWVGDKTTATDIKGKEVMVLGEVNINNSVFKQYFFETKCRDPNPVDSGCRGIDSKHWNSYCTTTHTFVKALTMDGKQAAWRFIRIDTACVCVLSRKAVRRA
nerve growth factor (NGF), sequence (P01138 122-241, species assumed): as above

| Structure (SMILES) | increase of NGF-induced TrkA phosphorylation compared to control (TrkA) [%] | percentage of neurite-bearing cells (PC12 cells; 4 ng/ml NGF and 10 μM glycopeptide 3 days, 2 ng/ml NGF and 6 μM glycopeptide 5 days, result in words) | effect on NGF-mediated neurite outgrowth (PC12 cells) | PC12 cell morphology with glycopeptide only (PC12 cells; in the absence of NGF) | increase in NGF binding affinity in comparison to 1 (ELISA) ([1]; relative to glycopeptide 1) [fold] | binds to NGF more strongly than agent 1 (comparison of KD values) (NGF; KD of 5 versus KD of 1) | SPR overall response to NGF (NGF; compared with glycopeptide 1, result in words) | ka2 (NGF) | kd1 (NGF) | kd2 (NGF) | ka1 (NGF) | binding to NGF (ELISA) ([1]; glycopeptide immobilized on streptavidin plate, NGF 0-60 nM, result in words) |
| --- | --- | --- | --- | --- | --- | --- | --- | --- | --- | --- | --- | --- |
| COC(=O)[C@@H]1C[C@@H](n2cc(CO[C@@H]3O[C@H](COS(=O)(=O)O)[C@H](OS(=O)(=O)O)[C@H](O[C@@H]4O[C@H](C(=O)O)[C@@H](O)[C@H](O)[C@H]4O)[C@H]3NC(C)=O)nn2)CN1C(=O)[C@@H]1CCCN1C(=O)[C@@H]1CCCN1C(=O)[C@@H]1C[C@@H](n2cc(CO[C@@H]3O[C@H](COS(=O)(=O)O)[C@H](OS(=O)(=O)O)[C@H](O[C@@H]4O[C@H](C(=O)O)[C@@H](O)[C@H](O)[C@H]4O)[C@H]3NC(C)=O)nn2)CN1C(=O)[C@@H]1CCCN1C(=O)[C@@H]1CCCN1C(=O)[C@@H]1C[C@@H](n2cc(CO[C@@H]3O[C@H](COS(=O)(=O)O)[C@H](OS(=O)(=O)O)[C@H](O[C@@H]4O[C@H](C(=O)O)[C@@H](O)[C@H](O)[C@H]4O)[C@H]3NC(C)=O)nn2)CN1C(=O)[C@@H]1CCCN1C(=O)[C@@H]1CCCN1C(=O)[C@@H]1C[C@@H](n2cc(CO[C@@H]3O[C@H](COS(=O)(=O)O)[C@H](OS(=O)(=O)O)[C@H](O[C@@H]4O[C@H](C(=O)O)[C@@H](O)[C@H](O)[C@H]4O)[C@H]3NC(C)=O)nn2)CN1C(=O)[C@@H]1CCCN1C(=O)[C@@H]1CCCN1C(=O)[C@@H]1C[C@@H](n2cc(CO[C@@H]3O[C@H](COS(=O)(=O)O)[C@H](OS(=O)(=O)O)[C@H](O[C@@H]4O[C@H](C(=O)O)[C@@H](O)[C@H](O)[C@H]4O)[C@H]3NC(C)=O)nn2)CN1C(=O)[C@@H]1CCCN1C(=O)[C@@H]1CCCN1C(=O)[C@@H]1C[C@@H](n2cc(CO[C@@H]3O[C@H](COS(=O)(=O)O)[C@H](OS(=O)(=O)O)[C@H](O[C@@H]4O[C@H](C(=O)O)[C@@H](O)[C@H](O)[C@H]4O)[C@H]3NC(C)=O)nn2)CN1C(=O)[C@@H]1CCCN1C(=O)[C@@H]1CCCN1C(=O)[C@@H]1C[C@@H](n2cc(CO[C@@H]3O[C@H](COS(=O)(=O)O)[C@H](OS(=O)(=O)O)[C@H](O[C@@H]4O[C@H](C(=O)O)[C@@H](O)[C@H](O)[C@H]4O)[C@H]3NC(C)=O)nn2)CN1C(=O)[C@@H]1CCCN1C(=O)[C@@H]1CCCN1C(=O)[C@@H]1C[C@@H](n2cc(CO[C@@H]3O[C@H](COS(=O)(=O)O)[C@H](OS(=O)(=O)O)[C@H](O[C@@H]4O[C@H](C(=O)O)[C@@H](O)[C@H](O)[C@H]4O)[C@H]3NC(C)=O)nn2)CN1C(=O)[C@@H]1CCCN1C(=O)[C@@H]1CCCN1C(=O)[C@@H]1C[C@@H](n2cc(CO[C@@H]3O[C@H](COS(=O)(=O)O)[C@H](OS(=O)(=O)O)[C@H](O[C@@H]4O[C@H](C(=O)O)[C@@H](O)[C@H](O)[C@H]4O)[C@H]3NC(C)=O)nn2)CN1C(=O)[C@@H]1CCCN1C(=O)[C@@H]1CCCN1C(=O)[C@@H]1C[C@@H](n2cc(CO[C@@H]3O[C@H](COS(=O)(=O)O)[C@H](OS(=O)(=O)O)[C@H](O[C@@H]4O[C@H](C(=O)O)[C@@H](O)[C@H](O)[C@H]4O)[C@H]3NC(C)=O)nn2)CN1C(=O)[C@@H]1CCCN1C(=O)[C@@H]1CCCN1C(=O)[C@@H]1C[C@@H](n2cc(CO[C@@H]3O[C@H](COS(=O)(=O)O)[C@H](OS(=O)(=O)O)[C@H](O[C@@H]4O[C@H](C(=O)O)[C@@H](O)[C@H](O)[C@H]4O)[C@H]3NC(C)=O)nn2)CN1C(=O)[C@@H]1CCCN1C(=O)[C@@H]1CCCN1C(=O)[C@@H]1C[C@@H](n2cc(CO[C@@H]3O[C@H](COS(=O)(=O)O)[C@H](OS(=O)(=O)O)[C@H](O[C@@H]4O[C@H](C(=O)O)[C@@H](O)[C@H](O)[C@H]4O)[C@H]3NC(C)=O)nn2)CN1C(=O)[C@@H]1CCCN1C(=O)[C@@H]1CCCN1C(=O)CCOCCOCCOCCOCCOCCOCCOCCOCCOCCOCCOCCOCCNC(=O)CCCC[C@@H]1SC[C@@H]2NC(=O)N[C@@H]21 [Glycopeptide 5] | ~40 | greatly increased | significantly promoted neurite outgrowth | remained round-shaped and undifferentiated | 4.6 | approximately 18 fold | higher overall responses | 1.97 (±0.02) × 10^−3 M^−1s^−1 | 2.74 (±0.04) × 10^−2 s^−1 | 6.00 (±0.17) × 10^−4 s^−1 | 4.65 (±0.16) × 10^4 M^−1s^−1 |  |
| COC(=O)[C@@H]1C[C@@H](n2cc(CO[C@@H]3O[C@H](COS(=O)(=O)O)[C@H](OS(=O)(=O)O)[C@H](O[C@@H]4O[C@H](C(=O)O)[C@@H](O)[C@H](O)[C@H]4O)[C@H]3NC(C)=O)nn2)CN1C(=O)[C@@H]1C[C@@H](n2cc(CO[C@@H]3O[C@H](COS(=O)(=O)O)[C@H](OS(=O)(=O)O)[C@H](O[C@@H]4O[C@H](C(=O)O)[C@@H](O)[C@H](O)[C@H]4O)[C@H]3NC(C)=O)nn2)CN1C(=O)[C@@H]1C[C@@H](n2cc(CO[C@@H]3O[C@H](COS(=O)(=O)O)[C@H](OS(=O)(=O)O)[C@H](O[C@@H]4O[C@H](C(=O)O)[C@@H](O)[C@H](O)[C@H]4O)[C@H]3NC(C)=O)nn2)CN1C(=O)[C@@H]1C[C@@H](n2cc(CO[C@@H]3O[C@H](COS(=O)(=O)O)[C@H](OS(=O)(=O)O)[C@H](O[C@@H]4O[C@H](C(=O)O)[C@@H](O)[C@H](O)[C@H]4O)[C@H]3NC(C)=O)nn2)CN1C(=O)[C@@H]1C[C@@H](n2cc(CO[C@@H]3O[C@H](COS(=O)(=O)O)[C@H](OS(=O)(=O)O)[C@H](O[C@@H]4O[C@H](C(=O)O)[C@@H](O)[C@H](O)[C@H]4O)[C@H]3NC(C)=O)nn2)CN1C(=O)[C@@H]1C[C@@H](n2cc(CO[C@@H]3O[C@H](COS(=O)(=O)O)[C@H](OS(=O)(=O)O)[C@H](O[C@@H]4O[C@H](C(=O)O)[C@@H](O)[C@H](O)[C@H]4O)[C@H]3NC(C)=O)nn2)CN1C(=O)[C@@H]1C[C@@H](n2cc(CO[C@@H]3O[C@H](COS(=O)(=O)O)[C@H](OS(=O)(=O)O)[C@H](O[C@@H]4O[C@H](C(=O)O)[C@@H](O)[C@H](O)[C@H]4O)[C@H]3NC(C)=O)nn2)CN1C(=O)[C@@H]1C[C@@H](n2cc(CO[C@@H]3O[C@H](COS(=O)(=O)O)[C@H](OS(=O)(=O)O)[C@H](O[C@@H]4O[C@H](C(=O)O)[C@@H](O)[C@H](O)[C@H]4O)[C@H]3NC(C)=O)nn2)CN1C(=O)[C@@H]1C[C@@H](n2cc(CO[C@@H]3O[C@H](COS(=O)(=O)O)[C@H](OS(=O)(=O)O)[C@H](O[C@@H]4O[C@H](C(=O)O)[C@@H](O)[C@H](O)[C@H]4O)[C@H]3NC(C)=O)nn2)CN1C(=O)[C@@H]1C[C@@H](n2cc(CO[C@@H]3O[C@H](COS(=O)(=O)O)[C@H](OS(=O)(=O)O)[C@H](O[C@@H]4O[C@H](C(=O)O)[C@@H](O)[C@H](O)[C@H]4O)[C@H]3NC(C)=O)nn2)CN1C(=O)[C@@H]1C[C@@H](n2cc(CO[C@@H]3O[C@H](COS(=O)(=O)O)[C@H](OS(=O)(=O)O)[C@H](O[C@@H]4O[C@H](C(=O)O)[C@@H](O)[C@H](O)[C@H]4O)[C@H]3NC(C)=O)nn2)CN1C(=O)[C@@H]1C[C@@H](n2cc(CO[C@@H]3O[C@H](COS(=O)(=O)O)[C@H](OS(=O)(=O)O)[C@H](O[C@@H]4O[C@H](C(=O)O)[C@@H](O)[C@H](O)[C@H]4O)[C@H]3NC(C)=O)nn2)CN1C(=O)CCOCCOCCOCCOCCOCCOCCOCCOCCOCCOCCOCCOCCNC(=O)CCCC[C@@H]1SC[C@@H]2NC(=O)N[C@@H]21 [Glycopeptide 1] |  |  | no effect |  |  |  |  | 3.62 (±0.04) × 10^−3 M^−1s^−1 | 3.22 (±0.07) × 10^−2 s^−1 | 6.43 (±0.13) × 10^−4 s^−1 | 1.95 (±0.39) × 10^3 M^−1s^−1 | moderate binding affinity |
